# Reference: patent US20070134261A1, “Effectors of innate immunity” (priority 2001, published 2007)
# Read-outs that look alike come from different tables or passages of the source. Marks after values point to notes of the source that are not given here. No end group written: not given here.
# Tests used:
# [1] = tested on: A549 human epithelial cells; assay: Induction of chemokines (IL-8, MCP-1) in A549 cells (ELISA); assay type: cell-based; settings: peptide 10 ug/ml, 24 hr
# Experimental: The murine macrophage cell line RAW 264.7, THP-1 cells (human monocytes), a human epithelial cell line (A549), human bronchial epithelial cells (16HBEo14), and whole human blood were used. HBE cells were grown in MEM with Earle's. THP-1 cells were grown and maintained in RPMI 1640 medium. The RAW and A549 cell lines were maintained in DMEM supplemented with 10% fetal calf serum. […] DMEM was aspirated from cells grown overnight and replaced with fresh medium. After incubation of the cells with peptide, the release of chemokines into the culture supernatant was determined by ELISA (R&D Systems, Minneapolis, Minn.).
# HBE cells = assay: WST-1 assay (cell viability); assay type: cell-based, human
# Experimental: (§1) The potential toxicity of the peptides was measured in two ways. First, the Cytotoxicity Detection Kit (Roche) (Lactate dehydrogenase-LDH) Assay was used. It is a colorimetric assay for the quantification of cell death and cell lysis, based on the measurement of LDH activity released from the cytosol of damaged cells into the supernatant. LDH is a stable cytoplasmic enzyme present in all cells and it is released into the cell culture supernatant upon damage of the plasma membrane. An increase in the amount of dead or plasma membrane-damaged cells results in an increase of the LDH enzyme activity in the culture supernatant as measured with an ELISA plate reader, OD490 nm (the amount of color formed in the assay is proportional to the number of lysed cells). In this assay, human bronchial epithelial cells (I6HBEo14, HBE) cells were incubated with 100 μg of peptide for 24 hours, the supernatant removed and tested for LDH. The other assay used to measure toxicity of the cationic peptides was the WST-1 assay (Roche). This assay is a colorimetric assay for the quantification of cell proliferation and cell viability, based on the cleavage of the tetrazolium salt WST-1 by mitochondrial dehydrogenases in viable cells (a non-radioactive alternative to the [^3H]-thymidine incorporation assay). In this assay, HBE cells were incubated with 100 μg of peptide for 24 hours, and then 10 μl/well Cell Proliferation Reagent WST-1 was added. The cells are incubated with the reagent and the plate is then measured with an ELISA plate reader, OD490 nm.
# [2] = tested on: RAW 264.7 mouse macrophage cells; assay type: cell-based; settings: Peptide 20 μg/ml; 100 ng/ml E. coli 0111:B4 LPS, 6 h
# [3] = tested on: human bronchial epithelial cells (HBE); assay: LDH release assay (Cytotoxicity Detection Kit); assay type: cell-based; settings: 100 μg/ml, 24 hours; no peptide control 1.0 ± 0.05
# Experimental: as §1
# [4] = assay type: cell-based; settings: for MIC, S. aureus: Staphylococcus aureus
# S. Typhimurium SL1344 = assay: Intracellular survival/replication of S. Typhimurium SL1344 in IFN-γ-primed RAW cells (gentamicin-resistance assay); assay type: cell-based, Salmonella Typhimurium; settings: pretreated with inhibitor 30 min prior to infection (50 μM U 0126, 50 μM PD 98059)
# BALB/c mice = assay: Lethal endotoxemia in galactosamine-sensitized BALB/c mice; assay type: in vivo; settings: 2 μg LPS; peptide 200 μg/mouse = 8 mg/kg IP 15 min after LPS; 48 hours; no peptide 10
# Human Jurkat T cells = assay: SDF-1 induced migration of human Jurkat T cells (Transwell); assay type: cell-based; settings: SDF-1 (100 ng/ml) alone, positive control 100%
# Experimental: SDF-1, a C-X-C chemokine is a natural ligand for HIV-1 coreceptor-CXCR4. The chemokine receptors CXCR4 and CCR5 are considered to be potential targets for the inhibition of HIV-1 replication. […] The migration assays were performed as follows. Human Jurkat T cells were resuspended to 5×10^6/ml in chemotaxis medium (RPMI 1640/10 mM Hepes/0.5% BSA). Migration assays were performed in 24 well plates using […] polycarbonate Transwell inserts (Costar). Briefly, peptide or controls were diluted in chemotaxis medium and placed in the lower chamber while 0.1 ml cells (5×10^6/ml) was added to the upper chamber. After 3 hr at 37° C., the number of cells that had migrated into the lower chamber was determined using flow cytometry. The medium from the lower chamber was passed through a FACscan for 30 seconds, gating on forward and side scatter to exclude cell debris. The number of live cells was compared to a “100% migration control” in which 5×10^5/ml cells had been pipetted directly into the lower chamber and then counted on the FACscan for 30 seconds.
compound,measurement,setting,value
CC[C@H](C)[C@H](NC(=O)[C@@H](NC(=O)[C@H](CCCNC(=N)N)NC(=O)[C@@H](NC(=O)[C@@H]1CCCN1C(=O)[C@H](CO)NC(=O)[C@H](CCCCN)NC(=O)[C@H](Cc1ccccc1)NC(=O)[C@@H](NC(=O)[C@H](CCCNC(=N)N)NC(=O)[C@H](CC(C)C)NC(=O)[C@H](Cc1ccccc1)NC(=O)[C@H](CO)NC(=O)[C@H](CCCCN)NC(=O)[C@H](Cc1c[nH]c2ccccc12)NC(=O)[C@@H](N)CCCCN)[C@@H](C)O)C(C)C)[C@@H](C)O)C(=O)N[C@@H](Cc1ccccc1)C(=O)N[C@@H](Cc1c[nH]cn1)C(=O)N[C@H](C(=O)N[C@@H](C)C(=O)N[C@@H](CC(C)C)C(=O)N[C@@H](CCCCN)C(=O)N1CCC[C@H]1C(=O)N[C@H](C(=O)N[C@@H](CO)C(=O)N[C@@H](CO)C(=O)O)[C@@H](C)CC)[C@@H](C)O [SEQ ID NO: 47],IL-8,[1],0.383 ng/mL
same,OD490 nm (WST-1 cell viability),HBE cells,1.14 ± 0.23 OD490 nm
same,Inhibition of TNF-α,[2],36.9 ± 2.2%
same,LDH Release (OD490 nm),[3],1.05 ± 0.05 OD490 nm
same,"MIC, S. aureus","[4]; overnight, 96-well plate",>
N#CC(=C(/N)Sc1ccccc1N)/C(C#N)=C(\N)Sc1ccccc1N [U 0126],Effect: bacterial filamentation (bacterial stress),S. Typhimurium SL1344,Decrease bacterial filamentation (bacterial stress)^c
same,Effect: number of intracellular S. Typhimurium,S. Typhimurium SL1344,Increase in the number of intracellular S. Typhimurium
"DLPAKRGSAPGST (Cationic peptide) [SEQ ID NO: 12, Formula B cationic peptide]",Survival,BALB/c mice,17%
same,Inhibition of TNF-α,[2],52.1 ± 0.38%
same,"MIC, E. coli","[4]; Escherichia coli, overnight, 96-well plate",>
same,"MIC, S. aureus","[4]; overnight, 96-well plate",>
SDF-1,Migration (%),Human Jurkat T cells; Experiment 1,32%
same,Migration (%),Human Jurkat T cells; Experiment 2,40%
SLPIKHDRLPATS [SEQ ID NO: 15],Survival,BALB/c mice,0%
same,Inhibition of TNF-α,[2],69.4 ± 0.84%
same,"MIC, C. rhod.",[4]; 24 h,128 µg/mL
same,"MIC, E. coli",[4]; 24 h,128 µg/mL
same,"MIC, EHEC",[4]; 24 h,64 µg/mL
same,"MIC, S. aureus","[4]; overnight, 96-well plate",>
